The assay can be described thus: Inhibition of TNFalpha in mouse L929 cells exposed to compound incubated for 1 hr with mouse TNFalpha by luminescence based assay.

As to `CC1(C)C(=O)c2ccc(-c3cnc(N4CCN5C(=O)NC[C@@H]5C4)nc3)cc2N1Cc1cccnc1C#N`, half-maximal inhibition (IC50) required 0.099 µM. This lies in the double-digit nanomolar range.

In turn, `C[C@@H]1CN(c2ncc(-c3ccc4c(c3)N(Cc3ccccc3OC(F)F)C(C)(C)C4=O)cn2)CCN1C(=O)CO` displayed an IC50 of 0.146 µM.

Consider `CN1CCN(Cc2ccc(-c3c[nH]c4ccncc34)c(OCCc3ccc(-c4cccc5ccncc45)cc3)c2)CC1`, for which the IC50 amounted to 0.128 µM.

Compound `C[C@@H]1CN(c2ncc(-c3ccc4c(c3)N(Cc3cccnc3C#N)C(C)(C)C4=O)cn2)CCN1C(=O)CO` returned an IC50 of 0.119 µM.

One may read the IC50 as the midpoint of a concentration-inhibition curve. Low values mean inhibition by little substance, high ones a need for much substance.
